Experiments:
[1] = DRUGMATRIX: GABAA, Chloride Channel, TBOB radioligand binding (ligand: [3H] TBOB); assay type: cell membranes, Rattus norvegicus, Wistar, Cerebral cortex, Membrane; details: Not Active = under 50% inhibition at 10 µM
[2] = molecular target: Protein kinase C alpha type (Homo sapiens, UniProt P17252); assay type: cell-based; details: sf9;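 note: inhibition of PKCalpha kinase activity measured in an enzyme assay with histone as the phosphorylation substrate; in other assays of this panel Not Active means under 50% inhibition at 10 µM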
Nitric oxide synthase 1 = Nitric oxide synthase 1 (Rattus norvegicus, UniProt P29476); assay type: tissue-based, Cerebellum; note: in other assays of this panel Not Active means under 50% inhibition at 10 µM
Nitric oxide synthase 1, sequence (P29476 whole entry): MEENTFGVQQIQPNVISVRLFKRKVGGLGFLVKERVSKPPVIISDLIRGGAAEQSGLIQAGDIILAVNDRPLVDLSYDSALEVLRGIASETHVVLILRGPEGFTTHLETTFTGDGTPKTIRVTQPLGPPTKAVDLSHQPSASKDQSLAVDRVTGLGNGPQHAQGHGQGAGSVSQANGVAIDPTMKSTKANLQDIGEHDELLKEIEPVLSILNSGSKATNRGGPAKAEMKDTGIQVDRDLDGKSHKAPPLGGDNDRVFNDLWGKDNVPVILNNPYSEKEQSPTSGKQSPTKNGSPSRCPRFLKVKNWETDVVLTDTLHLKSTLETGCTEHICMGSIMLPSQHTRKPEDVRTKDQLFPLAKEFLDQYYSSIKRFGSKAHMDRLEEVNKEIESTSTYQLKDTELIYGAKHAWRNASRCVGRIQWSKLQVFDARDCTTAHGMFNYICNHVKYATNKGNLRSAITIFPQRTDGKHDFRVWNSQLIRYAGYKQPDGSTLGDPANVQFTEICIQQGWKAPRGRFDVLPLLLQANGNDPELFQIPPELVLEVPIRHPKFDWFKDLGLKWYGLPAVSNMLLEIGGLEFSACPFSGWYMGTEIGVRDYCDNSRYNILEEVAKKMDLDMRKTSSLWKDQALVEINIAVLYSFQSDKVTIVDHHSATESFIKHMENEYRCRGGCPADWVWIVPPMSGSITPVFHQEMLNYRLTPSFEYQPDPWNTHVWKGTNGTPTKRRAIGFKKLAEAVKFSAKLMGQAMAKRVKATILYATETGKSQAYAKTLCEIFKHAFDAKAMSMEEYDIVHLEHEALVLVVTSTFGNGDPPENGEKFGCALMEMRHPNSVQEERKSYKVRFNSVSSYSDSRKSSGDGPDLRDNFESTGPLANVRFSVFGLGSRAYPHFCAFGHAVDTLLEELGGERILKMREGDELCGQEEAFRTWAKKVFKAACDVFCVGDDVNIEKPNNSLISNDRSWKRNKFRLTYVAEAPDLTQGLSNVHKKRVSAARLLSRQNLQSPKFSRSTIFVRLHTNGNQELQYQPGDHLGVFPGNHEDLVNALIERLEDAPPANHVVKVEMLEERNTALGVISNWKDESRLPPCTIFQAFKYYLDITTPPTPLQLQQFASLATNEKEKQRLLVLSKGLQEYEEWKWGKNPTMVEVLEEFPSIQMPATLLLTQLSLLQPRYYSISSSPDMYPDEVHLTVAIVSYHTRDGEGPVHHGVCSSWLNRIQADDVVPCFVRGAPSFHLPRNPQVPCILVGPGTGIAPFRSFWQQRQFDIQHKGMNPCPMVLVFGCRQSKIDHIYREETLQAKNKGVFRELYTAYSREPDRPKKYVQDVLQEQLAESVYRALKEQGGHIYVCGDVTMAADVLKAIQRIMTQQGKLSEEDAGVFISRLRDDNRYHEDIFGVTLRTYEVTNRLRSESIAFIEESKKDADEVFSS

[3] = molecular target: Vascular endothelial growth factor receptor 1 (Homo sapiens, UniProt P17948); assay: biochemical; assay type: cell-based, HUVEC; details: huvec; note: in other assays of this panel Not Active means under 50% inhibition at 10 µM
Vascular endothelial growth factor receptor 1, sequence (P17948 whole entry): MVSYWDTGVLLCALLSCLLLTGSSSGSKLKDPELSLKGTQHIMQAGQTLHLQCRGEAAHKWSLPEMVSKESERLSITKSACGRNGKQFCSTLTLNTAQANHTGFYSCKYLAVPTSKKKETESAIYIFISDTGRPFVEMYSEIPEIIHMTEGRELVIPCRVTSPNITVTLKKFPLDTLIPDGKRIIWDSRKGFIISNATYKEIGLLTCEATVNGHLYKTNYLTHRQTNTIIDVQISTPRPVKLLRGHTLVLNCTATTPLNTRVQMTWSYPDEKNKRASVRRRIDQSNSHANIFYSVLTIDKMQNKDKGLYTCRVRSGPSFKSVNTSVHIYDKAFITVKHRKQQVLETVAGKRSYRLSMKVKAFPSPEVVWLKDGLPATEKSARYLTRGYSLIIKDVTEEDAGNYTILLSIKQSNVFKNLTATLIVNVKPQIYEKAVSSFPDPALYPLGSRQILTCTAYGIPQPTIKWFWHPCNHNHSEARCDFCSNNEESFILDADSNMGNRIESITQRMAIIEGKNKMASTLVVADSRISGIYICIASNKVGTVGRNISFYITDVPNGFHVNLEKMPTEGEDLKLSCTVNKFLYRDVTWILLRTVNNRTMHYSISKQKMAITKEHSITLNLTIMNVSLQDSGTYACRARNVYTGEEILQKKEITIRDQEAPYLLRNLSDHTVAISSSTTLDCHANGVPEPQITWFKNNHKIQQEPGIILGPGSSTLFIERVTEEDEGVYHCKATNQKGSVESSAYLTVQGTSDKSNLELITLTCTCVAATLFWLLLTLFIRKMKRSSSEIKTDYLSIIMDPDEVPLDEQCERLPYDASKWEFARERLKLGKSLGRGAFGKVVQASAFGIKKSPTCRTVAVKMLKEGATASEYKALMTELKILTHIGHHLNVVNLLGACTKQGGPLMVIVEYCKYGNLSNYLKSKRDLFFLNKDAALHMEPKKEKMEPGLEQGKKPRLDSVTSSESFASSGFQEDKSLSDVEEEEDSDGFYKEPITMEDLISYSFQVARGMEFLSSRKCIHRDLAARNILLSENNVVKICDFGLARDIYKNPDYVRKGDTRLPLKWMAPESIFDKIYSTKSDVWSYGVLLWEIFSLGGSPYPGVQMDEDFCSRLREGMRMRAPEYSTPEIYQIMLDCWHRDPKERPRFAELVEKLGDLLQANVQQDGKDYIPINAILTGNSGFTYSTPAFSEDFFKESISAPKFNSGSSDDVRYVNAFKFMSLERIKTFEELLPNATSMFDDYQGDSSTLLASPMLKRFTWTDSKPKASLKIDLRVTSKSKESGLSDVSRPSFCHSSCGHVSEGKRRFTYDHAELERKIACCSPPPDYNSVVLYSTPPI

B2 bradykinin receptor = molecular target: T1, B2 bradykinin receptor (Homo sapiens, UniProt P30411); assay type: cell membranes, Membrane; details: chem-1; note: in other assays of this panel Not Active means under 50% inhibition at 10 µM
T1 sequence (P30411 whole entry): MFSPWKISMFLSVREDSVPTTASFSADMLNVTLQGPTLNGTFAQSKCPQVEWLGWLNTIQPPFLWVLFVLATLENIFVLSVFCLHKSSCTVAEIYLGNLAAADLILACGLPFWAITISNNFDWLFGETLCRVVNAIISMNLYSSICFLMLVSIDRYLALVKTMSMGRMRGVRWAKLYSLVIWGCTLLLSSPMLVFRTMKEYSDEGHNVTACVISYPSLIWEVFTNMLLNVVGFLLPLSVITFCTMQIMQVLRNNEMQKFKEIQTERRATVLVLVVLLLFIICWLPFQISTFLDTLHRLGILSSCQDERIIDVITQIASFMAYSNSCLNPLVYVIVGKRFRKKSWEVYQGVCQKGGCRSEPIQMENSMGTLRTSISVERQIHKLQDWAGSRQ

[4] = molecular target: T2, C-X-C chemokine receptor type 2 (Homo sapiens, UniProt P25025); assay type: cell membranes, Membrane; details: cho-k1; note: in other assays of this panel Not Active means under 50% inhibition at 10 µM
T2 sequence (P25025 whole entry): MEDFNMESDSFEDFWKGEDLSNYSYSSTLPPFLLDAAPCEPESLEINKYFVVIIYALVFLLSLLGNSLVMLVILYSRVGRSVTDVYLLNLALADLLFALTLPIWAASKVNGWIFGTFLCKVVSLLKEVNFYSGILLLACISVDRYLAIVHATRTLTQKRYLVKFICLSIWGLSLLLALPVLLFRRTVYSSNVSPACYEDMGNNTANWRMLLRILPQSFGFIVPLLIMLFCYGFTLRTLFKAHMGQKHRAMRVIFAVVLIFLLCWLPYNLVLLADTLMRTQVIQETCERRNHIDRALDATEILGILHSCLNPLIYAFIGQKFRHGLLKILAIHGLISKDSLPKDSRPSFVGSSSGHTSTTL

[5] = DRUGMATRIX: Purinergic P2X radioligand binding (ligand: [3H] alpha, beta-Methylene-ATP); assay type: cell membranes, Oryctolagus cuniculus, New Zealand albino, Urinary bladder, Membrane; details: Not Active = under 50% inhibition at 10 µM
[6] = molecular target: Aldo-keto reductase family 1 member B1 (Rattus norvegicus, UniProt P07943); assay: biochemical; assay type: tissue-based, Lens of camera-type eye
[7] = molecular target: T3, Receptor-type tyrosine-protein phosphatase C (Homo sapiens, UniProt P08575); set-up: species or system Escherichia coli
T3 sequence (P08575 whole entry): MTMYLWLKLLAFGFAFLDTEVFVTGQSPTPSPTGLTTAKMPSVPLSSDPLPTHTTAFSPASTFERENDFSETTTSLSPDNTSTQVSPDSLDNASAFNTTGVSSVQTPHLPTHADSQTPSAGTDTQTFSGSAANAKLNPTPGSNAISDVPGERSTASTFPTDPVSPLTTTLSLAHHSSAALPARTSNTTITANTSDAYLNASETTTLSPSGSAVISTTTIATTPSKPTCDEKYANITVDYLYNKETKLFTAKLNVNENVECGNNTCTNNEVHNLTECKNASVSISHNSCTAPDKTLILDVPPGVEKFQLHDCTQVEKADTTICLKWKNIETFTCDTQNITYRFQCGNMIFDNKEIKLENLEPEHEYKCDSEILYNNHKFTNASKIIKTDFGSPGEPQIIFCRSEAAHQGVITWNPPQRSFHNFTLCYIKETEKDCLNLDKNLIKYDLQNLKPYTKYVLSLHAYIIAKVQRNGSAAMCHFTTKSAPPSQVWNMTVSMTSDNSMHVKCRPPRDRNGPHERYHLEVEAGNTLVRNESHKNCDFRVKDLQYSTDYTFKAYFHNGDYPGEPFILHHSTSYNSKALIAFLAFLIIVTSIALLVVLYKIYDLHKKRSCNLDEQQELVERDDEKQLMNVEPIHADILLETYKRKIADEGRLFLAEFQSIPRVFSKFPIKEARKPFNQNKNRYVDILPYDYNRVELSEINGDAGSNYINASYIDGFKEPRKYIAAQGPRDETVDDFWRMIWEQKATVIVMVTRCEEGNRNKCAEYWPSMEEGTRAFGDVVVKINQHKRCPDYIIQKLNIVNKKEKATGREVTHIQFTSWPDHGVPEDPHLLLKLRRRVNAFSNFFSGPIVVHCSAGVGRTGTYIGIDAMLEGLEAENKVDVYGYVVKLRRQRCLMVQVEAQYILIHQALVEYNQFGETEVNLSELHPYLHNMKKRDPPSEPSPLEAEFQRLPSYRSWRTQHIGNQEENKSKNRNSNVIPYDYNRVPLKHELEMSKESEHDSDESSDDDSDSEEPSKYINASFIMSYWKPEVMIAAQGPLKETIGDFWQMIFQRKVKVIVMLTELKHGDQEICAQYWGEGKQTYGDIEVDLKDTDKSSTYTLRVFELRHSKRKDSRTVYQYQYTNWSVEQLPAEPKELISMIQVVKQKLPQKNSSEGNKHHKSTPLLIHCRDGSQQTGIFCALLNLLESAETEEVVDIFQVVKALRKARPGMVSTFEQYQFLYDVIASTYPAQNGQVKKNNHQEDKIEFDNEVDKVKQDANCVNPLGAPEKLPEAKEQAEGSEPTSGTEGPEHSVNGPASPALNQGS

CCS(=O)(=O)CCn1c([N+](=O)[O-])cnc1C [TINIDAZOLE]
Not Active: IC50 [1] | Ki [1] | IC50 [2] | IC50 (Nitric oxide synthase 1) | IC50 [3] | IC50 (B2 bradykinin receptor) | IC50 [4] | IC50 [5] | Ki [5] | IC50 [6] | IC50 [7]

C[C@@H]1C[C@H]2[C@@H]3CCC4=CC(=O)C=C[C@]4(C)C3=CC[C@]2(C)[C@H]1C(=O)CN1CCN(c2cc(N3CCCC3)nc(N3CCCC3)n2)CC1 [TIRILAZAD]
Not Active: IC50 [1] | Ki [1] | IC50 [2] | IC50 (Nitric oxide synthase 1) | IC50 [3] | IC50 (B2 bradykinin receptor) | IC50 [4] | IC50 [5] | Ki [5] | IC50 [6] | IC50 [7]

NC[C@H]1O[C@H](O[C@H]2[C@H](O)[C@@H](O[C@H]3O[C@H](CO)[C@@H](O)[C@H](N)[C@H]3O)[C@H](N)C[C@@H]2N)[C@H](N)C[C@@H]1O [TOBRAMYCIN]
Not Active: IC50 [1] | Ki [1] | IC50 [2] | IC50 (Nitric oxide synthase 1) | IC50 [3] | IC50 (B2 bradykinin receptor) | IC50 [4] | IC50 [5] | Ki [5] | IC50 [6] | IC50 [7]

O=C(O)C(Cl)(Cl)Cl [TRICHLOROACETIC ACID]
Not Active: IC50 [1] | Ki [1] | IC50 [2] | IC50 (Nitric oxide synthase 1) | IC50 [3] | IC50 (B2 bradykinin receptor) | IC50 [4] | IC50 [5] | Ki [5] | IC50 [6] | IC50 [7]

COc1ccc(CN2CCNCC2)c(OC)c1OC [TRIMETAZIDINE]
Not Active: IC50 [1] | Ki [1] | IC50 [2] | IC50 (Nitric oxide synthase 1) | IC50 [3] | IC50 (B2 bradykinin receptor) | IC50 [4] | IC50 [5] | Ki [5] | IC50 [6] | IC50 [7]

CC(=O)O[C@H]1C[C@@H]2CC[C@@H]3[C@H](CC[C@@]4(C)[C@H]3C[C@H]([N+]3(C)CCCCC3)[C@@H]4OC(C)=O)[C@@]2(C)C[C@@H]1N1CCCCC1.[Br-] [VECURONIUM BROMIDE]
Not Active: IC50 [1] | Ki [1] | IC50 [2] | IC50 (Nitric oxide synthase 1) | IC50 [3] | IC50 (B2 bradykinin receptor) | IC50 [4] | IC50 [5] | Ki [5] | IC50 [6] | IC50 [7]

COc1cc(C(=O)NS(=O)(=O)c2ccccc2C)ccc1Cc1cn(C)c2ccc(NC(=O)OC3CCCC3)cc12 [ZAFIRLUKAST]
Not Active: IC50 [1] | Ki [1] | IC50 [2] | IC50 (Nitric oxide synthase 1) | IC50 [3] | IC50 (B2 bradykinin receptor) | IC50 [4] | IC50 [5] | Ki [5] | IC50 [6] | IC50 [7]

Cc1cn([C@H]2C[C@H](N=[N+]=[N-])[C@@H](CO)O2)c(=O)[nH]c1=O [ZIDOVUDINE]
Not Active: IC50 [1] | Ki [1] | IC50 [2] | IC50 (Nitric oxide synthase 1) | IC50 [3] | IC50 (B2 bradykinin receptor) | IC50 [4] | IC50 [5] | Ki [5] | IC50 [6] | IC50 [7]

STANNOUS FLUORIDE
Not Active: IC50 [1] | Ki [1] | IC50 [2] | Ki [2] | IC50 (Nitric oxide synthase 1) | Ki (Nitric oxide synthase 1) | IC50 [3] | Ki [3] | IC50 (B2 bradykinin receptor) | Ki (B2 bradykinin receptor) | IC50 [4] | Ki [4] | IC50 [5] | Ki [5] | IC50 [6] | Ki [6] | IC50 [7] | Ki [7]

THIMEROSAL
Not Active: IC50 [1] | Ki [1] | IC50 [2] | Ki [2] | IC50 (Nitric oxide synthase 1) | Ki (Nitric oxide synthase 1) | IC50 [3] | Ki [3] | IC50 (B2 bradykinin receptor) | Ki (B2 bradykinin receptor) | IC50 [4] | Ki [4] | IC50 [5] | Ki [5] | IC50 [6] | Ki [6] | IC50 [7] | Ki [7]

From ChEMBL document CHEMBL1909046, “DrugMatrix in vitro pharmacology data”
